Assay results published in patent publication US6432976B1, “8-aza-bicyclo[3.2.1]octane NMDA/NR2B antagonists” (Merck & Co., Inc., priority 1999, dated 2002).
Structures can show the parent of a compound that is named as a salt.

SMILES | melting point [°C]
OC1C(Cc2ccccc2)CC2CCC1N2Cc1nc2ccccc2[nH]1 (racemic) | 208 to 209
COC1C(Cc2ccccc2)CC2CCC1N2Cc1nc2ccccc2[nH]1 (racemic) (as salt: hydrochloride) | 222 to 226
OC1C(Cc2ccccc2)CC2CCC1N2Cc1nc2ccccc2[nH]1 (racemic) (as salt: hydrochloride) | 234 to 236
COC1C(Cc2ccccc2)CC2CCC1N2Cc1nc2ccccc2[nH]1 (racemic) | 172 to 173
